Assays:
Test in all cases: Herbicidal effect by foliage and soil treatment
Assay type in all cases: in vivo
Conditions in all cases: 10 g ai/10a, evaluated after 14 days
[1] = system: black nightshade (Solanum nigrum)
Text: (§1) Experiment for Determination of Herbicidal Effect by Foliate and Soil Treatment Seeds of redroot pigweed (Amaranthus retroflexus), common blackjack (Bidens pilosa), kediock (Sinapis arvensis), common chickweed (Stellaria media), sicklepod (Cassia obtusifolia), black nightshade (Solanum nigrum), velvetleaf (Abutilon theophrasti), field bindweed (Convolvulus arvensis), wild chamomile (Matricaria chamomilla), cleavers (Galium aparine) and […] (Veronica hederaefolia), were uniformly sowed over a horticultural granular soil (produced by KUREHA CHEMICAL INDUSTRY, CO., LTD.; the same soil was used hereinafter) filled in a planter. The planter was placed in a greenhouse (maintained at 19 to 25° C.) to sprout these plants. Two seedlings of each sprouted plant were transplanted to a 10 cm-diameter pot filled with the horticultural granular soil and cultivated in the greenhouse (maintained at 19 to 25° C.) until reaching a cotyledonal to bifoliate period suited to the foliage and soil treatment. […] Next, additional amounts of Tween 20 and water were added to the obtained solution or suspension to produce a test solution. The plants prepared in the above (1) were placed within a frame having a predetermined inside area, and uniformly sprayed with the test solution using a sprayer such that the amount of each compound applied was controlled to a predetermined level. The plants sprayed with the test solution were placed again in the greenhouse (maintained at 19 to 25° C.) and cultivated therein. After 14 days, the degree of growth of each plant cultivated in the treated region was compared with that of plant cultivated in non-treated region, and evaluated according to the following ratings. The herbicidal activity of each test compound was represented by these ratings

[2] = system: cleavers (Galium aparine)
Text: as §1

[3] = system: common blackjack (Bidens pilosa)
Text: as §1

[4] = system: common chickweed (Stellaria media)
Text: as §1

[5] = system: field bindweed (Convolvulus arvensis)
Text: as §1

[6] = system: ivyleafspeedwell (Veronica hederaefolia)
Text: as §1

[7] = system: kediock (Sinapis arvensis)
Text: as §1

[8] = system: redroot pigweed (Amaranthus retroflexus)
Text: as §1

[9] = system: sicklepod (Cassia obtusifolia)
Text: as §1

[10] = system: velvetleaf (Abutilon theophrasti)
Text: as §1

[11] = system: wild chamomile (Matricaria chamomilla)
Text: as §1

Compound: COc1cc(Oc2cccc(C(F)(F)F)c2)nc(C(=O)NC2CCCCC2)c1 [Compound I-43]
- herbicidal activity rating, SN (Solanum nigrum) [1]: 5 (percentage of weeds killed was not less than 80%)
- herbicidal activity rating, GA (Galium aparine) [2]: 5 (percentage of weeds killed was not less than 80%)
- herbicidal activity rating, BP (Bidens pilosa) [3]: 4 (percentage of weeds killed was not less than 60% and less than 80%)
- herbicidal activity rating, SM (Stellaria media) [4]: 5 (percentage of weeds killed was not less than 80%)
- herbicidal activity rating, CA (Convolvulus arvensis) [5]: 5 (percentage of weeds killed was not less than 80%)
- herbicidal activity rating, VH (Veronica hederaefolia) [6]: 5 (percentage of weeds killed was not less than 80%)
- herbicidal activity rating, SA (Sinapis arvensis) [7]: 5 (percentage of weeds killed was not less than 80%)
- herbicidal activity rating, AR (Amaranthus retroflexus) [8]: 5 (percentage of weeds killed was not less than 80%)
- herbicidal activity rating, CO (Cassia obtusifolia) [9]: 5 (percentage of weeds killed was not less than 80%)
- herbicidal activity rating, AT (Abutilon theophrasti) [10]: 4 (percentage of weeds killed was not less than 60% and less than 80%)
- herbicidal activity rating, MC (Matricaria chamomilla) [11]: 4 (percentage of weeds killed was not less than 60% and less than 80%)

Compound: CCNC(=S)c1cc(OC)cc(Oc2cccc(C(F)(F)F)c2)n1 [Compound I-44]
- herbicidal activity rating, SN (Solanum nigrum) [1]: 5 (percentage of weeds killed was not less than 80%)
- herbicidal activity rating, GA (Galium aparine) [2]: 5 (percentage of weeds killed was not less than 80%)
- herbicidal activity rating, BP (Bidens pilosa) [3]: 4 (percentage of weeds killed was not less than 60% and less than 80%)
- herbicidal activity rating, SM (Stellaria media) [4]: 5 (percentage of weeds killed was not less than 80%)
- herbicidal activity rating, CA (Convolvulus arvensis) [5]: 4 (percentage of weeds killed was not less than 60% and less than 80%)
- herbicidal activity rating, VH (Veronica hederaefolia) [6]: 5 (percentage of weeds killed was not less than 80%)
- herbicidal activity rating, SA (Sinapis arvensis) [7]: 5 (percentage of weeds killed was not less than 80%)
- herbicidal activity rating, AR (Amaranthus retroflexus) [8]: 5 (percentage of weeds killed was not less than 80%)
- herbicidal activity rating, CO (Cassia obtusifolia) [9]: 5 (percentage of weeds killed was not less than 80%)
- herbicidal activity rating, AT (Abutilon theophrasti) [10]: 4 (percentage of weeds killed was not less than 60% and less than 80%)
- herbicidal activity rating, MC (Matricaria chamomilla) [11]: 3 (percentage of weeds killed was not less than 40% and less than 60%)

Compound: COc1cc(Oc2cccc(C(F)(F)F)c2)nc(C(=O)NCc2ccccc2)c1 [Compound I-45, N-benzyl-4-methoxy-6-{3-(trifluoromethyl)phenoxy}-2-pyridine carboxamide]
- herbicidal activity rating, SN (Solanum nigrum) [1]: 5 (percentage of weeds killed was not less than 80%)
- herbicidal activity rating, GA (Galium aparine) [2]: 5 (percentage of weeds killed was not less than 80%)
- herbicidal activity rating, BP (Bidens pilosa) [3]: 5 (percentage of weeds killed was not less than 80%)
- herbicidal activity rating, SM (Stellaria media) [4]: 5 (percentage of weeds killed was not less than 80%)
- herbicidal activity rating, CA (Convolvulus arvensis) [5]: 5 (percentage of weeds killed was not less than 80%)
- herbicidal activity rating, VH (Veronica hederaefolia) [6]: 5 (percentage of weeds killed was not less than 80%)
- herbicidal activity rating, SA (Sinapis arvensis) [7]: 5 (percentage of weeds killed was not less than 80%)
- herbicidal activity rating, AR (Amaranthus retroflexus) [8]: 5 (percentage of weeds killed was not less than 80%)
- herbicidal activity rating, CO (Cassia obtusifolia) [9]: 5 (percentage of weeds killed was not less than 80%)
- herbicidal activity rating, AT (Abutilon theophrasti) [10]: 4 (percentage of weeds killed was not less than 60% and less than 80%)
- herbicidal activity rating, MC (Matricaria chamomilla) [11]: 2 (percentage of weeds killed was not less than 20% and less than 40%)

Compound: CNC(=O)c1cc(OC)cc(Oc2cccc(C(F)(F)F)c2)n1 [Compound I-46]
- herbicidal activity rating, SN (Solanum nigrum) [1]: 5 (percentage of weeds killed was not less than 80%)
- herbicidal activity rating, GA (Galium aparine) [2]: 5 (percentage of weeds killed was not less than 80%)
- herbicidal activity rating, BP (Bidens pilosa) [3]: 3 (percentage of weeds killed was not less than 40% and less than 60%)
- herbicidal activity rating, SM (Stellaria media) [4]: 5 (percentage of weeds killed was not less than 80%)
- herbicidal activity rating, CA (Convolvulus arvensis) [5]: 5 (percentage of weeds killed was not less than 80%)
- herbicidal activity rating, VH (Veronica hederaefolia) [6]: 5 (percentage of weeds killed was not less than 80%)
- herbicidal activity rating, SA (Sinapis arvensis) [7]: 5 (percentage of weeds killed was not less than 80%)
- herbicidal activity rating, AR (Amaranthus retroflexus) [8]: 5 (percentage of weeds killed was not less than 80%)
- herbicidal activity rating, CO (Cassia obtusifolia) [9]: 5 (percentage of weeds killed was not less than 80%)
- herbicidal activity rating, AT (Abutilon theophrasti) [10]: 4 (percentage of weeds killed was not less than 60% and less than 80%)
- herbicidal activity rating, MC (Matricaria chamomilla) [11]: 3 (percentage of weeds killed was not less than 40% and less than 60%)

Compound: CNC(=S)c1cc(OC)cc(Oc2cccc(C(F)(F)F)c2)n1 [Compound I-47]
- herbicidal activity rating, SN (Solanum nigrum) [1]: 5 (percentage of weeds killed was not less than 80%)
- herbicidal activity rating, GA (Galium aparine) [2]: 5 (percentage of weeds killed was not less than 80%)
- herbicidal activity rating, BP (Bidens pilosa) [3]: 3 (percentage of weeds killed was not less than 40% and less than 60%)
- herbicidal activity rating, SM (Stellaria media) [4]: 4 (percentage of weeds killed was not less than 60% and less than 80%)
- herbicidal activity rating, CA (Convolvulus arvensis) [5]: 5 (percentage of weeds killed was not less than 80%)
- herbicidal activity rating, VH (Veronica hederaefolia) [6]: 5 (percentage of weeds killed was not less than 80%)
- herbicidal activity rating, SA (Sinapis arvensis) [7]: 5 (percentage of weeds killed was not less than 80%)
- herbicidal activity rating, AR (Amaranthus retroflexus) [8]: 5 (percentage of weeds killed was not less than 80%)
- herbicidal activity rating, CO (Cassia obtusifolia) [9]: 5 (percentage of weeds killed was not less than 80%)
- herbicidal activity rating, AT (Abutilon theophrasti) [10]: 5 (percentage of weeds killed was not less than 80%)
- herbicidal activity rating, MC (Matricaria chamomilla) [11]: 3 (percentage of weeds killed was not less than 40% and less than 60%)

Compound: COc1cc(Oc2cccc(C(F)(F)F)c2)nc(C(=O)NC2CC2)c1 [Compound I-48, N-cyclopropyl-4-methoxy-6-{3-(trifluoromethyl)phenoxy}-2-pyridine carboxamide]
- herbicidal activity rating, SN (Solanum nigrum) [1]: 5 (percentage of weeds killed was not less than 80%)
- herbicidal activity rating, GA (Galium aparine) [2]: 5 (percentage of weeds killed was not less than 80%)
- herbicidal activity rating, BP (Bidens pilosa) [3]: 4 (percentage of weeds killed was not less than 60% and less than 80%)
- herbicidal activity rating, SM (Stellaria media) [4]: 5 (percentage of weeds killed was not less than 80%)
- herbicidal activity rating, CA (Convolvulus arvensis) [5]: 5 (percentage of weeds killed was not less than 80%)
- herbicidal activity rating, VH (Veronica hederaefolia) [6]: 5 (percentage of weeds killed was not less than 80%)
- herbicidal activity rating, SA (Sinapis arvensis) [7]: 5 (percentage of weeds killed was not less than 80%)
- herbicidal activity rating, AR (Amaranthus retroflexus) [8]: 5 (percentage of weeds killed was not less than 80%)
- herbicidal activity rating, CO (Cassia obtusifolia) [9]: 5 (percentage of weeds killed was not less than 80%)
- herbicidal activity rating, AT (Abutilon theophrasti) [10]: 5 (percentage of weeds killed was not less than 80%)
- herbicidal activity rating, MC (Matricaria chamomilla) [11]: 5 (percentage of weeds killed was not less than 80%)

Compound: COc1cc(Oc2cccc(C(F)(F)F)c2)nc(C(=O)NC2CCC2)c1 [Compound I-49]
- herbicidal activity rating, SN (Solanum nigrum) [1]: 5 (percentage of weeds killed was not less than 80%)
- herbicidal activity rating, GA (Galium aparine) [2]: 5 (percentage of weeds killed was not less than 80%)
- herbicidal activity rating, BP (Bidens pilosa) [3]: 5 (percentage of weeds killed was not less than 80%)
- herbicidal activity rating, SM (Stellaria media) [4]: 5 (percentage of weeds killed was not less than 80%)
- herbicidal activity rating, CA (Convolvulus arvensis) [5]: 5 (percentage of weeds killed was not less than 80%)
- herbicidal activity rating, VH (Veronica hederaefolia) [6]: 5 (percentage of weeds killed was not less than 80%)
- herbicidal activity rating, SA (Sinapis arvensis) [7]: 5 (percentage of weeds killed was not less than 80%)
- herbicidal activity rating, AR (Amaranthus retroflexus) [8]: 5 (percentage of weeds killed was not less than 80%)
- herbicidal activity rating, CO (Cassia obtusifolia) [9]: 5 (percentage of weeds killed was not less than 80%)
- herbicidal activity rating, AT (Abutilon theophrasti) [10]: 5 (percentage of weeds killed was not less than 80%)
- herbicidal activity rating, MC (Matricaria chamomilla) [11]: 5 (percentage of weeds killed was not less than 80%)
